Experiments:
Assay type in all cases: in vivo
[1] = test system: Zymoseptoria tritici strain Zt StA; test: In planta preventive efficacy on wheat cv. Alixan against Zymoseptoria tritici strain Zt StA (control strain, sensitive); conditions: for Disease Severity Intensity: % of length of 2nd leaf blade, preventive 24 h; for AUDPC: control 781.6
Method: (§1) A series of experiments were conducted to evaluate the efficacy of flumetylsulforim (ADF-16) for treating different strains of Zymoseptoria tritici in comparison with commercially available fungicides. Table 1 describes the Z. tritici strains used in this study and Table 2 describes the fungicides used in this study.
(§2) Winter wheat plants cv. Alixan (Limagrain) at the BBCH 12 growth stage were treated preventively with sterile distilled water (control), ADF-16, penthiopyrad, metconazole or tebuconazole at the rates described in Table 2 with a hand sprayer at 2 bars.
(§3) After treatment, wheat plants were left to dry at room temperature for 1 hour and then placed in a climatic chamber: temperature of 24 °C day/18 °C night-photoperiod of 16 h light/8 h dark and a relative humidity of 65%.
(§4) Untreated or treated whole wheat plants were inoculated 24-hours post-treatment with a calibrated pycnospore suspension of Z. tritici strains Zt StA, Zt 61, Zt 99, Zt 20, Zt 19-52, and Zt 38-02. Three replicates (pots) of 6 wheat plants each were used for each condition tested.
(§5) After inoculation, pots were transferred in a climatic chamber: temperature of 20 °C day/17 °C night—photoperiod of 16 h light/8 h dark and controlled relative humidity.
(§6) Disease assessments were carried out at 15 days post inoculation (dpi), 21 dpi and 28 dpi by measuring the length of the necrosis on the second leaf blade. The intensity of infection was then determined as a percentage of the total length of 2nd leaf blade.
(§7) The fungicide efficacies were determined from the Area Under the Disease Progress Curve (AUDPC) values and expressed as a percentage of the untreated control.
(§8) The AUDPC is a quantitative measure of disease intensity over time. The most commonly used method for estimating the AUDPC, the trapezoidal method, is performed by multiplying the average disease intensity between each pair of adjacent timepoints by the corresponding time interval and this for each time interval. The AUDPC is determined with the following formula by adding all of the trapezoids:
(§9) [formula] • yi=disease severity at the ith observation • ti=time (days) at the ith observation • N=total number of observations

[2] = test system: Zymoseptoria tritici strain Zt 38-02; test: In planta preventive efficacy on wheat cv. Alixan against Zymoseptoria tritici strain Zt 38-02; conditions: for Disease Severity Intensity: % of length of 2nd leaf blade, preventive 24 h; for AUDPC: control 1261.4
Method: as §1, §2, §3, §4, §5, §6, §7, §8, §9

[3] = test system: Zymoseptoria tritici strain Zt 99; test: In planta preventive efficacy on wheat cv. Alixan against Zymoseptoria tritici strain Zt 99; conditions: for Disease Severity Intensity: % of length of 2nd leaf blade, preventive 24 h; for AUDPC: control 1352.9
Method: as §1, §2, §3, §4, §5, §6, §7, §8, §9

[4] = test system: Zymoseptoria tritici strain Zt 20; test: In planta preventive efficacy on wheat cv. Alixan against Zymoseptoria tritici strain Zt 20; conditions: % of length of 2nd leaf blade, preventive 24 h
Method: as §1, §2, §3, §4, §5, §6, §7, §8, §9

[5] = test system: Zymoseptoria tritici strain Zt 19-52; test: In planta preventive efficacy on wheat cv. Alixan against Zymoseptoria tritici strain Zt 19-52; conditions: % of length of 2nd leaf blade, preventive 24 h
Method: as §1, §2, §3, §4, §5, §6, §7, §8, §9

[6] = test system: Zymoseptoria tritici strain Zt 61; test: In planta preventive efficacy on wheat cv. Alixan against Zymoseptoria tritici strain Zt 61; design: fungicide efficacy: concentration or dose not given beside the values; conditions: for Disease Severity Intensity: % of length of 2nd leaf blade, preventive 24 h; for AUDPC: control 1194.9
Method: as §1, §2, §3, §4, §5, §6, §7, §8, §9

[7] = 15 dpi, rate N (g a.i./ha): ADF-16 100, penthiopyrad 200, metconazole 90, tebuconazole 250, control also no disease
[8] = 15 dpi, rate N/2.5 (g a.i./ha): ADF-16 40, penthiopyrad 80, metconazole 36, tebuconazole 100, control also no disease
[9] = rate N (g a.i./ha): ADF-16 100, penthiopyrad 200, metconazole 90, tebuconazole 250
[10] = rate N/2.5 (g a.i./ha): ADF-16 40, penthiopyrad 80, metconazole 36, tebuconazole 100

## CC1(C)CCC(Cc2ccc(Cl)cc2)C1(O)Cn1cncn1 (centres unmarked) [Metconazole]
[1]; [7]
  Disease Severity Intensity: No disease
[1]; [8]
  Disease Severity Intensity: No disease
[1]; 21 dpi, rate N (g a.i./ha): ADF-16 100, penthiopyrad 200, metconazole 90, tebuconazole 250, control 36.5
  Disease Severity Intensity: 0.0 +/− 0.0b %
[1]; 21 dpi, rate N/2.5 (g a.i./ha): ADF-16 40, penthiopyrad 80, metconazole 36, tebuconazole 100, control 36.5
  Disease Severity Intensity: 0.0 +/− 0.0b %
[1]; 28 dpi, rate N (g a.i./ha): ADF-16 100, penthiopyrad 200, metconazole 90, tebuconazole 250, control 77.4
  Disease Severity Intensity: 0.0 +/− 0.0b %
[1]; 28 dpi, rate N/2.5 (g a.i./ha): ADF-16 40, penthiopyrad 80, metconazole 36, tebuconazole 100, control 77.4
  Disease Severity Intensity: 0.0 +/− 0.0b %
[1]; [9]
  Efficacy (from AUDPC, percentage of the untreated control): 100%
  AUDPC: 0.0 +/− 0.0b
[1]; [10]
  Efficacy (from AUDPC, percentage of the untreated control): 100%
  AUDPC: 0.0 +/− 0.0b
[2]; 15 dpi, rate N (g a.i./ha): ADF-16 100, penthiopyrad 200, metconazole 90, tebuconazole 250, control 36.0
  Disease Severity Intensity: 0.0 +/− 0.0b %
[2]; 15 dpi, rate N/2.5 (g a.i./ha): ADF-16 40, penthiopyrad 80, metconazole 36, tebuconazole 100, control 36.0
  Disease Severity Intensity: 1.7 +/− 0.9b %
[2]; 21 dpi, rate N (g a.i./ha): ADF-16 100, penthiopyrad 200, metconazole 90, tebuconazole 250, control 84.3
  Disease Severity Intensity: 25.6 +/− 3.9d %
[2]; 21 dpi, rate N/2.5 (g a.i./ha): ADF-16 40, penthiopyrad 80, metconazole 36, tebuconazole 100, control 84.3
  Disease Severity Intensity: 61.8 +/− 2.5bc %
[2]; 28 dpi, rate N (g a.i./ha): ADF-16 100, penthiopyrad 200, metconazole 90, tebuconazole 250, control 95.7
  Disease Severity Intensity: 82.4 +/− 3.4c %
[2]; 28 dpi, rate N/2.5 (g a.i./ha): ADF-16 40, penthiopyrad 80, metconazole 36, tebuconazole 100, control 95.7
  Disease Severity Intensity: 92.1 +/− 1.2b %
[2]; [9]
  Efficacy (from AUDPC, percentage of the untreated control): 64.0%
  AUDPC: 454.7 +/− 29.0c
[2]; [10]
  Efficacy (from AUDPC, percentage of the untreated control): 41.1%
  AUDPC: 743.0 +/− 14.9b
[3]; 15 dpi, rate N (g a.i./ha): ADF-16 100, penthiopyrad 200, metconazole 90, tebuconazole 250, control 47.9
  Disease Severity Intensity: 0.0 +/− 0.0d %
[3]; 15 dpi, rate N/2.5 (g a.i./ha): ADF-16 40, penthiopyrad 80, metconazole 36, tebuconazole 100, control 47.9
  Disease Severity Intensity: 1.3 +/− 1.2d %
[3]; 21 dpi, rate N (g a.i./ha): ADF-16 100, penthiopyrad 200, metconazole 90, tebuconazole 250, control 81.0
  Disease Severity Intensity: 18.2 +/− 2.6d %
[3]; 21 dpi, rate N/2.5 (g a.i./ha): ADF-16 40, penthiopyrad 80, metconazole 36, tebuconazole 100, control 81.0
  Disease Severity Intensity: 58.7 +/− 2.8c %
[3]; 28 dpi, rate N (g a.i./ha): ADF-16 100, penthiopyrad 200, metconazole 90, tebuconazole 250, control 92.2
  Disease Severity Intensity: 86.3 +/− 2.4ab %
[3]; 28 dpi, rate N/2.5 (g a.i./ha): ADF-16 40, penthiopyrad 80, metconazole 36, tebuconazole 100, control 92.2
  Disease Severity Intensity: 84.6 +/− 4.3b %
[3]; [9]
  Efficacy (from AUDPC, percentage of the untreated control): 69.0%
  AUDPC: 419.9 +/− 29.6e
[3]; [10]
  Efficacy (from AUDPC, percentage of the untreated control): 48.9%
  AUDPC: 691.1 ± 28.1 days
[4]; [7]
  Disease Severity Intensity: No disease
[4]; [8]
  Disease Severity Intensity: No disease
[4]; 21 dpi, rate N (g a.i./ha): ADF-16 100, penthiopyrad 200, metconazole 90, tebuconazole 250, control 77.2
  Disease Severity Intensity: 1.9 +/− 0.7cd %
[4]; 21 dpi, rate N/2.5 (g a.i./ha): ADF-16 40, penthiopyrad 80, metconazole 36, tebuconazole 100, control 77.2
  Disease Severity Intensity: 15.1 +/− 2.8b %
[4]; 28 dpi, rate N (g a.i./ha): ADF-16 100, penthiopyrad 200, metconazole 90, tebuconazole 250, control 95.5
  Disease Severity Intensity: 33.0 +/− 3.6d %
[4]; 28 dpi, rate N/2.5 (g a.i./ha): ADF-16 40, penthiopyrad 80, metconazole 36, tebuconazole 100, control 95.5
  Disease Severity Intensity: 78.0 +/− 5.0b %
[5]; 15 dpi, rate N (g a.i./ha): ADF-16 100, penthiopyrad 200, metconazole 90, tebuconazole 250, control 22.0
  Disease Severity Intensity: 0.0 +/− 0.0b %
[5]; 15 dpi, rate N/2.5 (g a.i./ha): ADF-16 40, penthiopyrad 80, metconazole 36, tebuconazole 100, control 22.0
  Disease Severity Intensity: 0.0 +/− 0.0b %
[5]; 21 dpi, rate N (g a.i./ha): ADF-16 100, penthiopyrad 200, metconazole 90, tebuconazole 250, control 81.7
  Disease Severity Intensity: 0.3 +/− 0.2c %
[5]; 21 dpi, rate N/2.5 (g a.i./ha): ADF-16 40, penthiopyrad 80, metconazole 36, tebuconazole 100, control 81.7
  Disease Severity Intensity: 2.1 +/− 0.8b %
[5]; 28 dpi, rate N (g a.i./ha): ADF-16 100, penthiopyrad 200, metconazole 90, tebuconazole 250, control 91.0
  Disease Severity Intensity: 12.0 +/− 1.9c %
[5]; 28 dpi, rate N/2.5 (g a.i./ha): ADF-16 40, penthiopyrad 80, metconazole 36, tebuconazole 100, control 91.0
  Disease Severity Intensity: 22.4 +/− 2.3b %
[6]; [7]
  Disease Severity Intensity: No disease
[6]; [8]
  Disease Severity Intensity: No disease
[6]; 21 dpi, rate N/2.5 (g a.i./ha): ADF-16 40, penthiopyrad 80, metconazole 36, tebuconazole 100, control 63.3
  Disease Severity Intensity: 10.1 +/− 1.6c %
[6]; 28 dpi, rate N (g a.i./ha): ADF-16 100, penthiopyrad 200, metconazole 90, tebuconazole 250, control 88.1
  Disease Severity Intensity: 35.1 +/− 3.8d %
[6]; 28 dpi, rate N/2.5 (g a.i./ha): ADF-16 40, penthiopyrad 80, metconazole 36, tebuconazole 100, control 88.1
  Disease Severity Intensity: 65.6 +/− 4.2bc %
[6]; higher application rates (N)
  fungicide efficacy: ≥ 85%
[6]; lower application rates (N/2.5)
  fungicide efficacy: ≤ 70%
[6]; [9]
  Efficacy (from AUDPC, percentage of the untreated control): 85.9%
  AUDPC: 168.8 +/− 45.4cd
[6]; [10]
  Efficacy (from AUDPC, percentage of the untreated control): 68.9%
  AUDPC: 371.8 +/− 48.7b
